Assay: Phase 1 SAD/MAD: safety (adverse events) in healthy volunteers
Type: in vivo, human
Procedure: In this study, SAD/MAD cohorts are randomized (3 to 1) to receive Compound 1 or placebo (P). Compound 1 was evaluated first in 4 healthy SAD cohorts and 4 healthy MAD (14-day dosing period) cohorts. Based on the safety, and PK/PD profile from HS, Compound 1 is then evaluated in 1 SCD SAD cohort and 2 SCD MAD cohorts. Specifically, based on the safety and pharmacokinetic/pharmacodynamics (PK/PD) profile in healthy volunteer studies, Compound 1 is evaluated in patients (pts) with SCD, first in a single dose (SD or SAD) cohort and then in multiple-dose (MD or MAD) cohorts (14-day and 12-week). Safety assessments include AEs, vital signs, ECGs and laboratory parameters. PK/PD blood sampling was performed on Day 1 (SAD/MAD) and Day 14 (MAD) and up to 72 h after the last dose and at the end-of-study visit. PD parameters included 2,3-DPG, ATP, and p50 in all cohorts with additional PD studies (including oxygen scan) performed only in the SCD cohorts. PD parameters included 2,3-DPG, ATP, p50, RBC deformability with controlled deoxygenation and reoxygenation (Lorrca® oxygen scan) and varying osmolality (Lorrca® osmoscan)). To maintain study blind, pt identifiers were removed when needed.
Outcome Measures Primary Outcome Measures: • 1. Incidence, frequency, and severity of adverse events (AEs) per CTCAE v5.0 of a single ascending dose and multiple ascending doses of Compound 1 in adult healthy volunteers and SCD patients. Incidence of abnormal laboratory test results (clinical chemistry, endocrine hematology, urinalysis). Change from baseline in vital signs (blood pressure, respiratory rate, heart rate, and oral temperature). Incidence of treatment-emergent clinically significant abnormal findings in ECGs. • [Time Frame: Up to 3 weeks of monitoring] • 2. […] Area under the plasma concentration-time curve from time zero until the 24-hour time point (AUC0-24) • [Time Frame: Up to 3 weeks of testing] • 5. Area under the plasma concentration-time curve from time zero until last quantifiable time point (AUC0-last) • [Time Frame: Up to 3 weeks of testing] • 6. Area under the plasma concentration-time curve from time zero to infinity (AUC0-inf) • [Time Frame: Up to 3 weeks of testing] • 7. […] Apparent volume of distribution (Vd/F) • [Time Frame: Up to 3 weeks of testing] • 10. Terminal disposition rate constant (Lz) • [Time Frame: Up to 3 weeks of testing] • 11. […] Secondary Outcome Measures: • 12. Change from baseline in the levels of 2,3-diphosphoglycerate (DPG) and adenosine triphosphate (ATP) in the red blood cells (RBCs) of healthy volunteers and SCD patients after single and multiple doses of Compound 1. • [Time Frame: Up to 3 weeks of testing] • 13. […] Change from baseline heart rate after a single dose of Compound 1 in healthy volunteers and/or SCD subjects • [Time Frame: up to 7 days] • 15. Change from baseline PR after a single dose of Compound 1 in healthy volunteers and/or SCD subjects • [Time Frame: up to 7 days] • 16. Change from baseline QRS (AHR, APR, and AQRS) after a single dose of Compound 1 in healthy volunteers and/or SCD subjects • [Time Frame: up to 7 days] • 17. Change from baseline T-wave morphology after a single dose of Compound 1 in healthy volunteers and/or SCD subjects • [Time Frame: up to 7 days] Exploratory Outcome Measures: • 18. Effect of food on Cmax, AUC0-24/AUClast • 19. Effect of AUClast/AUC0-24, Cmax, minimum plasma concentration (Cmin), peak-to trough ratio, dose linearity, accumulation ratio on safety, PD, and hematologic parameters of interest, as assessed by exposure-response analyses • 20. Effect of 2,3-DPG reduction in RBCs on the oxyhemoglobin dissociation curve (p50; partial pressure of O2 at which 50% of hemoglobin is saturated with O2) after a single dose and after chronic dosing of Compound 1 • 21. Effect of chronic Compound 1 dosing on normal and SCD RBC deformability by osmotic gradient ektacytometry and oxygen gradient ektacytometry • 22. […]

O=C([C@H](CO)c1ccccc1)N1CC2=C(C1)CN(S(=O)(=O)c1cnc3c(c1)OCCO3)C2 (single isomer, unassigned) [Compound 1]
Grade 1 headache (most common AE) (HS receiving 14 days): 28%
Grade 1 headache (most common AE) (HS receiving a single dose): 4%
Any TEAE, n (%) (HV MAD Compound 1 N = 36): 15 (42) n (%)
Any grade 3 or greater TEAE, n (%) (HV MAD Compound 1 N = 36): 0 n (%)
Drug interruption, reduction, or discontinuation due to TEAE, n (%) (HV MAD Compound 1 N = 36): 0 n (%)
related TEAE of grade 2 or less: headache (HV MAD cohorts): 4 n
related TEAE of grade 2 or less: palpitations (HV MAD cohorts): 1 n
related TEAE of grade 2 or less: somnolence (HV MAD cohorts): 1 n
Any TEAE, n (%) (HV SAD Compound 1 N = 24): 5 (21) n (%)
Any grade 3 or greater TEAE, n (%) (HV SAD Compound 1 N = 24): 1 (4) n (%)
Drug interruption, reduction, or discontinuation due to TEAE, n (%) (HV SAD Compound 1 N = 24): 0 n (%)
related TEAE of grade 2 or less: headache (HV SAD cohorts): 1 n
related TEAE of grade 2 or less: transient ventricular tachycardia (HV SAD cohorts): 1 n
serious adverse events / AEs leading to withdrawal (SAD and MAD cohorts of healthy volunteers): No serious adverse events (SAEs) or AEs leading to withdrawal were reported

— patent publication US12128035B2, “Activating pyruvate kinase R” (Novo Nordisk Health Care AG, priority 2021, dated 2024)
